# Target: T1, LIFR (leukemia inhibitory factor receptor) (Homo sapiens, UniProt P42702)
# T1 construct: with LIF
# Test: cell-free AlphaScreen, inhibition of LIF/LIFR binding
# T1 sequence (P42702 45-1097): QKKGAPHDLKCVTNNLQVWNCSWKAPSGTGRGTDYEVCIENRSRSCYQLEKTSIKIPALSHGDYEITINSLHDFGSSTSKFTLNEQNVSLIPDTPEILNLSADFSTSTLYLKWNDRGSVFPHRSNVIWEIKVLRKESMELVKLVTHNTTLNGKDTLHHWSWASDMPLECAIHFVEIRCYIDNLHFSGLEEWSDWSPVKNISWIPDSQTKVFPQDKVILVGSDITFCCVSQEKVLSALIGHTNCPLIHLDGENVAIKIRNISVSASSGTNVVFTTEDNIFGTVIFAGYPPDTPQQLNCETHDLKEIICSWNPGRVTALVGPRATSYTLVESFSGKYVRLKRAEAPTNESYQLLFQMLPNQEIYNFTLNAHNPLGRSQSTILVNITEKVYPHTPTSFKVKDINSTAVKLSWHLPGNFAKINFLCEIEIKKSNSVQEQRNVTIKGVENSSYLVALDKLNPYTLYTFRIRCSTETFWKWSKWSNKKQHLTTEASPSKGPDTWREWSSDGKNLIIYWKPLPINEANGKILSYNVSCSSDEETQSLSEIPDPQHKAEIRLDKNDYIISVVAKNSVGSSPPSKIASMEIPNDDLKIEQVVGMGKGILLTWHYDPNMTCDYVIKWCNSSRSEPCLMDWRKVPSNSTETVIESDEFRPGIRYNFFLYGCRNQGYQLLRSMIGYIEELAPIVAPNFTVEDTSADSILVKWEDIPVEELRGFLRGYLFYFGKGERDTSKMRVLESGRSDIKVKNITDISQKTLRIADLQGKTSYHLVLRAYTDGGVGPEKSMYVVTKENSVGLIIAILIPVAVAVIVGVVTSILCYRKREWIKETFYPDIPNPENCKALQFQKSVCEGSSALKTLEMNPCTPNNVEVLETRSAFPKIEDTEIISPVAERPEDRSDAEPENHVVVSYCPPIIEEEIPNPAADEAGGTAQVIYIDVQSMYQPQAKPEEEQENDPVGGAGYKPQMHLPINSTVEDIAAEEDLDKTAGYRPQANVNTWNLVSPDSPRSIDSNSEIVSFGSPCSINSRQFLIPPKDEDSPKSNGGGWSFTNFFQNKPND
# T1 sequence (P15018 23-202 partner): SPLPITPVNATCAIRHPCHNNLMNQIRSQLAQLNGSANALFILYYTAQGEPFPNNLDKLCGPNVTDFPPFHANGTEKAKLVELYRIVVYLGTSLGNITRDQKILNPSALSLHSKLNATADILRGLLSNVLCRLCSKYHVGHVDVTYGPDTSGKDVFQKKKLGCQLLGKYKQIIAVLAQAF
structure (smiles),measurement,value
C=CC[C@]1(O)CCC2C3CCC4=CC(=O)CCC4=C3[C@@H](c3ccc(-c4ccccc4)cc3)C[C@@]21C (stereo partly shown) [LRI-201],IC50,21.9 ± 2.16 µM

# Reference: PMC11090936, “The leukemia inhibitory factor regulates fibroblast growth factor receptor 4 transcription in gastric cancer” (Cellular Oncology, 2023)
